Experimental data: patent US9593146B2, “CD44v6-derived peptides for treating metastasizing cancer” (AMCURE GMBH, priority 2012, dated 2017)

Assays:
[1] = tested on: L3.6pl tumors; assay: In vivo / ex vivo imaging (Pearl Imager) of mice with L3.6pl tumors; details: for fluorescence / accumulation in the orthotopic L3.6pl tumor in vivo: 20 μg i.v., 24 h after injection
Description: In vivo imaging of the mice with the L3.6pl tumors was performed using the Pearl™ Imager (LI-COR Biosciences, Bad Homburg, Germany). The system uses two lasers (685 and 785 nm) for excitation and a charge-coupled device detector for signal detection. The laser excitation enables a deep tissue penetration. With the near-infrared detection a high sensitivity due to the reduced tissue auto-fluorescence is achieved. In order to standardize the images we made use of the Pearl Cam Software. The animals were fed with chlorophyll-reduced food to reduce the fluorescence background one week before imaging (Regime 210, safe-diets, Augy, France). Prior to imaging the mice were anesthetized with 2.0% isoflurane. Animals were placed on the heated plate of the imager and continuous delivery of isoflurane was achieved through a nose cone in the imaging drawer. Images were captured at white light, 700 and 800 nm. Animals were imaged prior to i.v. peptide injection and 24 h after injection with either DY681-labeled human v6 peptide or DY681-labeled rat v6 peptide as control. Immediately after each imaging session animals were killed, tumor, liver and spleen isolated and scanned ex vivo at white light, 700 and 800 nm.

[2] = tested on: Met and ERK; assay: HGF induced activation of Met and ERK in L3.6pl cells (Western blot); type: cell-based, human; details: L3.6pl cells induced with HGF (FIG. 5A right)
Description: (§1) Serum-starved cells (24 hours) were induced with the growth factor HGF (10 ng/mL) at 37° C. for 5 minutes. Where indicated, the cells were treated with peptides (100 ng/ml) prior to induction at 37° C. for 10 minutes (100 ng/mL CD44v6 peptide or control peptide). Following the induction with HGF, cells were washed with ice-cold phosphate-buffered saline (PBS). To detect activated Met and Erk, cells were lysed in sodium dodecyl sulfate (SDS)-sample buffer containing 100 mM dithiothreitol (DTT), boiled and subjected to western blot analysis using antibodies against phospho-Met and ERK. The loading controls were performed on the same blot after stripping (62.5 mM Tris, pH 6.8, 2% SDS, 0.8% DTT) by probing with the Met respectively ERK antibody. Blots were stained using the enhanced chemiluminescence system (Thermo Fisher Scientific, Schwerte, Germany). Bands in western blot analysis were quantified with the program Image J (National Institutes of Health).

[3] = tested on: L3.6pl cells; assay: Staining of L3.6pl cells with DY681-labeled peptides; type: cell-based, human; details: DY681 labeled peptide
Description: (§2) ASs6 or L3.6pl cells were seeded at 5,000 cells/well of a Lab-TekR Chamber Slide™ (Nunc, Napierville, Ill., USA). On the following day the cells were washed with cold PBS and fixed with 4% Formalin for 30 min at RT. Unspecific binding was blocked with 1% BSA in PBS for 1 hour at RT. The cells were incubated for 1 hour with the DY681-labeled peptides. After three washing steps with PBS the cover slips were mounted with Fluorescence Mounting Medium (Dako, Glostrup, Denmark) and the immunofluorescence was measured by a laser scanning confocal microscope Leica TCS2 SP2 (Exton, Pa., USA) and processed using Leica confocal software. A 20× objective was used for imaging.

[4] = tested on: BSp73ASs6 cells; assay: Staining of fixed BSp73ASs6 cells with DY681-labeled peptides; type: cell-based, rat; details: DY681-labeled peptide for one hour
Description: as §2

[5] = tested on: Met and ERK; assay: HGF induced activation of Met and Erk in BSp73ASs6 cells (Western blot); type: cell-based, rat; details: BSp73ASs6 cells induced with HGF in the presence of the labeled peptide (FIG. 3A right)
Description: as §1
Rat pancreatic cancer cells BSp73ASs6 (also designated Ass6) were incubated for 10 min at 37° C. with either ctrl-peptides (SEQ ID No.: 15), non-pegylated v6-peptides (SEQ ID No.: 11) and increasing concentrations of the pegylated peptides, namely PEG-rat control peptide and PEG-rat CD44v6 peptide, before induction with HGF (10 ng/ml; 5 min at 37° C.).
Activation of ERK and Met was determined by standard SDS and Western Blotting techniques using a phospho-Met and phospho-Erk specific antibody (phospho-Met clone D16 cell signaling, phospho-Erk p42/44 cell signaling)
ASs6 cells, serum starved for 24 h, were induced with HGF (10 ng/ml) at 37° C. for 5 min. Where indicated, the cells were treated with PEGylated or non-PEGylated peptides before induction at 37° C. for 10 min (150 nM). Cells were washed with phosphate-buffered saline (PBS) and lysed in boiling sodium dodecyl sulfate (SDS)-sample buffer containing 100 mM dithiothreitol (DTT). Subsequently, lysates were subjected to Western blot analysis using antibodies against phosphorylated Mek and Erk (Cell signaling). The Mek and Erk loading control were performed on the same blot, stripped (62.5 mM Tris pH 6.8, 2% SDS, 0.8% DTT) and probed with the Mek and Erk antibodies. Blots were stained using the enhanced chemiluminescence system (Thermo Fisher Scientific).

[6] = tested on: Met; details: N to A and E to A mutated pentapeptide; cited from earlier work
[7] = tested on: BSp73ASs6 tumors; details: rat
Description: In vivo imaging of the subcutaneously grown BSp73ASs6 tumors in BD10 or BDX rats was performed using the near infrared fluorescence (NIRF)-imaging system Optix MX2 (ART, Montreal, Canada) as described earlier (Napp et al., Int J Cancer (2010), 127:1958-1974). To avoid autofluorescence of fur, rats were shaved around the tumor prior to imaging. Subsequently, animals were anesthetized using 2% isoflurane and gently fixed on the devices' heated plate for the entire time of data acquisition. To reduce fluorescence background, rats were fed with chlorophyll-reduced food (Provimi Kliba AG, Kaiseraugst, Switzerland) for one week prior NIRF imaging. All in vivo analyses were preceded by native scans of animals without any injection of the fluorescent probe. […] The rat 11mer had the sequence [sequence] (SEQ ID No.: 12), the mouse 11mer had the sequence [sequence] (SEQ ID No.: 13) and the human 11mer had the sequence [sequence] (SEQ ID No.: 14). All peptides were labeled with the fluorescent dye DY681. Data were acquired at the indicated time after injection of the peptides. For ex vivo monitoring animals were sacrificed after 24 hrs after peptide injection and tumor and organs of interest were scanned ex vivo using Optix MX2.
DY681 fluorescence was measured using excitation at 670 nm in combination with a 700 nm long-pass emission filter. […] Data sets were analyzed with OptiView (ART).

WFGNRWHEGYR [DY681 human v6 peptide, human v6 11mer labeled with DY681]
fluorescence / accumulation in the orthotopic L3.6pl tumor in vivo [1]: accumulated specifically in the tumor
ex vivo binding to primary tumors, livers ([1]; organs excised 24 h after injection): binding not only to primary tumors but also to areas of the liver
inhibition of Met activation by DY681 labeled peptide [2]: inhibited Met activation in L3.6pl cells
binding to L3.6pl cells in cell culture [3]: bound to these cells in cell culture

WFQNGWQGKNP [mv6 pep Dy681, mouse v6 11mer labeled with DY681, control, reference compound]
binding to BSp73ASs6 cells in tissue culture [4]: not the DY681-labeled mouse v6 peptide bound to BSp73ASs6 cells
inhibition of Met activation by DY681 labeled peptide [5]: not the mouse peptide inhibited Met activation

A-R-W-H-A (ARWHA) [pentapeptide with N and E mutated to A]
Met activation [6]: capable of abrogating Met activation

WFENEWQGKNP [rv6 pep Dy681]
fluorescence / accumulation in the orthotopic L3.6pl tumor in vivo [1]: No fluorescence was detected
binding to BSp73ASs6 cells in tissue culture [4]: bound to BSp73ASs6 cells in tissue culture
inhibition of Met activation by DY681 labeled peptide [5]: inhibited Met activation
fluorescence in excised tumors and lungs ex vivo [7]: could only be detected in tumors and in specific areas of the lungs
